We go through 21 molecules from PMC8651256 (Environmental science & technology, 2021).

In general, EC50 refers to the concentration giving half of the maximal effect. Read a high EC50 as a less potent agent. For orientation: ΔTm means the shift of the melting midpoint relative to a reference. The Kd is the concentration at which binding is half-saturated.

“Also recorded” adds a separate entry of the source.

Series [1] concerns the target human serum albumin (HSA) (Homo sapiens, UniProt P02768). The series can be described thus: Differential scanning fluorimetry. Conditions: for EC50 / ΔTm / Kd / HSA binding (in words): 0.125 mM HSA; for EC50: 4-parameter variable slope model; for EC50 / Kd: mean ± SD; for ΔTm: maximal melting temperature shift; for HSA binding (in words): DSF; for thermal shift profile at different reaction volumes (volatility check): volumes of 10, 20, 50 and 200 μL per sealed well. (In DSF a fluorescence change marks the thermal transition of the protein.)

For series [2] the following is noted: DMSO as solvent; cited from earlier work.
The mark [3] stands for this setting: PFAS, single-site ligand binding model.

human serum albumin (HSA), sequence (P02768 25-609): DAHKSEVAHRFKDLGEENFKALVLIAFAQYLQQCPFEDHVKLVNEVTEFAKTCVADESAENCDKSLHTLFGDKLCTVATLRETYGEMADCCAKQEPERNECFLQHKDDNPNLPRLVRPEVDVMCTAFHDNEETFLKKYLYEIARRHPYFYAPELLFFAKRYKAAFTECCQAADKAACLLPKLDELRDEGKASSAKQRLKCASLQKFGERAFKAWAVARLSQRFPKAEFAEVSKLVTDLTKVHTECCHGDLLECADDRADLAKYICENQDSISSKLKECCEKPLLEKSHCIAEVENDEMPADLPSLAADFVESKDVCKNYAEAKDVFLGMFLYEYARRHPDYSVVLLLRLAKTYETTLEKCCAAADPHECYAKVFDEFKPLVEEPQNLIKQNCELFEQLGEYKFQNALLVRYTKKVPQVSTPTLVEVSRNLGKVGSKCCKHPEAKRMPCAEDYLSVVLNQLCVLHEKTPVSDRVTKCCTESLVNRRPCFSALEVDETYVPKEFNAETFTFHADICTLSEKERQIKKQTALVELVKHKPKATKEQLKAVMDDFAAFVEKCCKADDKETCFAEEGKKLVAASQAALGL

With `O=C(O)CCC(F)(F)C(F)(F)C(F)(F)C(F)(F)C(F)(F)F` [5:3 FTCA, 2H,2H,3H,3H-perfluorooctanoic acid], in series [1] (PFAS), the EC50 stood at 1480 ± 240 µM and the shift in melting temperature (ΔTm) was 3.62 ± 0.14 °C. In series [1] (setting [3]), this molecule displayed a Kd of 620 ± 100 µM.
For `O=C(O)CCC(F)(F)C(F)(F)C(F)(F)C(F)(F)C(F)(F)C(F)(F)F` [6:3 FTCA, 2,H,2H,3H,3H-perfluorononanoic acid], in series [1] (PFAS), the EC50 was 840 ± 210 µM and the thermal shift (ΔTm) was 9.50 ± 0.20 °C. The molecule also registered an equilibrium dissociation constant (Kd) in series [1] (setting [3]) of 810 ± 230 µM.
For the molecule `O=C(O)CCC(F)(F)C(F)(F)C(F)(F)F` [3:3 FTCA, 2H,2H,3H,3H-perfluorohexanoic acid], in series [1] (PFAS), the 50% effective concentration (EC50) came to 2060 ± 510 µM and the thermal shift (ΔTm) turned out to be 2.24 ± 0.062 °C. This molecule also came in with a Kd in series [1] (setting [3]) of 1710 ± 470 µM.
For the molecule `O=S(=O)(O)C(F)(F)C(F)(F)C(F)(F)C(F)(F)C(F)(F)C(F)(F)C(F)(F)C(F)(F)F` [PFOS, perfluorooctanesulfonic acid], in series [1] (PFAS), a half-maximal effect (EC50) was put at 1130 ± 320 µM and the ΔTm stood at 16.2 ± 0.90 °C.
With `O=C(O)C(F)(F)C(F)(F)C(F)(F)C(F)(F)F` [PFPeA, perfluoropentanoic acid], in series [1] (PFAS), the EC50 came to 2140 ± 420 µM and the ΔTm came to 13.1 ± 0.066 °C. Moreover, the Kd in series [1] (setting [3]) came to 2100 ± 560 µM.
With `OCCC(F)(F)C(F)(F)C(F)(F)C(F)(F)C(F)(F)C(F)(F)F` [6:2 FTOH, 1H,1H,2H,2H-perfluorooctanol], in series [1], the “HSA binding (in words)” value is “not bound by HSA; also recorded: did not bind HSA” and the “thermal shift profile at different reaction volumes (volatility check)” value is “no differences”. Besides, the ΔTm in series [1] (PFAS) came to 0 ± 0 °C.
Consider `O=S(=O)(O)C(F)(F)C(F)(F)C(F)(F)C(F)(F)F` [PFBS, perfluorobutanesulfonic acid], for which, in series [1] (PFAS), the EC50 was 1720 ± 560 µM and the ΔTm came to 11.9 ± 0.11 °C. In series [1] (setting [3]), this molecule registered a Kd of 1650 ± 690 µM.
In series [1] (EC50, PFAS), `O=C(O)C(F)(F)C(F)(F)C(F)(F)C(F)(F)C(F)(F)C(F)(F)C(F)(F)F` [PFOA, perfluorooctanoic acid] returned a concentration giving a half-maximal response (EC50) of 840 ± 150 µM. The Kd in series [1] (Kd, PFOA stock in HEPES-buffered saline (HBS)) is 830 ± 270 µM; in series [1] (Kd, PFOA stock in methanol (30% in HBS)), 830 ± 150 µM.
Consider `O=C(O)CCC(F)(F)C(F)(F)C(F)(F)C(F)(F)C(F)(F)C(F)(F)C(F)(F)C(F)(F)F` [8:3 FTCA, 2,H,2H,3H,3H-perfluoroundecanoate], for which, in series [1] (PFAS), a half-maximal effect (EC50) was put at 1160 ± 420 µM and the thermal shift (ΔTm) was found to be 10.01 ± 0.17 °C. In addition, the affinity in series [1] (setting [3]), expressed as Kd, was 970 ± 170 µM.
Take `O=S(=O)(O)CCC(F)(F)C(F)(F)C(F)(F)C(F)(F)F` [4:2 FTSA, 2H,2H,3H,3H-perfluorohexanesulfonic acid]: in series [1] (PFAS), the midpoint of the response, the EC50, lay at 1450 ± 340 µM and the ΔTm was found to be 3.49 ± 0.12 °C. In series [1] (setting [3]), this molecule returned a Kd of 1070 ± 470 µM.
On the same counts, the results for `O=C(O)C(F)(F)C(F)(F)C(F)(F)C(F)(F)C(F)(F)C(F)(F)C(F)(F)C(F)(F)F` [PFNA, perfluorononanoic acid] are 600 ± 230 µM, 13.4 ± 0.34 °C and 580 ± 210 µM.
On the same counts, the results for `O=C(O)C(F)(F)C(F)(F)C(F)(F)C(F)(F)C(F)(F)F` [PFHxA, Perfluorohexanoic acid] are 1400 ± 270 µM, 10.6 ± 0.24 °C and 1640 ± 470 µM.
For `O=C(O)C(F)(F)C(F)(F)C(F)(F)F` [PFBA, perfluorobutanoic acid], in series [1] (PFAS), the EC50 was 2610 ± 470 µM and the ΔTm amounted to 6.48 ± 0.18 °C. The molecule further yielded an equilibrium dissociation constant (Kd) in series [1] (setting [3]) of 2570 ± 780 µM.
On the same counts, the results for `O=C(O)C(F)(F)C(F)(F)C(F)(F)C(F)(F)C(F)(F)C(F)(F)C(F)(F)C(F)(F)C(F)(F)C(F)(F)F` [PFunDA, Perfluoroundecanoic acid] are 1490 ± 48 µM, 9.02 ± 0.47 °C and 1360 ± 1060 µM.
On the same counts, the results for `O=C(O)C(F)(F)C(F)(F)C(F)(F)C(F)(F)C(F)(F)C(F)(F)C(F)(F)C(F)(F)C(F)(F)F` [PFDA, perfluorodecanoic acid] are 1110 ± 170 µM, 17.2 ± 0.13 °C and 1190 ± 590 µM.
Regarding `FC(OC(F)(F)C(F)(F)C(F)(F)F)C(F)(F)F` (stereo not shown) [E1, 1,1,1,2,2,3,3-heptafluoro-3-(1,2,2,2-tetrafluoroethoxy)propane], the “HSA binding (in words)” value in series [1] was “bound by albumin”. Also, the EC50 in series [1] (EC50, PFAS) is 2340 ± 560 µM.
On to `O=S(=O)(O)CCC(F)(F)C(F)(F)C(F)(F)C(F)(F)C(F)(F)C(F)(F)F` [6:2 FTSA, 2H,2H,3H,3H-perfluorooctane-1-sulfonate], for which, in series [1] (PFAS), the EC50 was 470 ± 290 µM and the ΔTm turned out to be 3.60 ± 0.47 °C. In series [1] (setting [3]), this molecule came in with a Kd of 370 ± 340 µM. Besides, the “thermal shift profile at different reaction volumes (volatility check)” value in series [1] is on record as “no differences”.
Take `O=S(=O)(O)C(F)(F)C(F)(F)OC(F)(C(F)(F)F)C(F)(F)OC(F)C(F)(F)F` (stereo not shown) [Nafion bp2]: in series [1] (PFAS), the response was half-maximal at 1900 ± 590 µM (EC50) and the shift in melting temperature (ΔTm) was 12.4 ± 0.17 °C. Also, the Kd in series [1] (setting [3]) was found to be 1510 ± 370 µM.
Turning to `O=S(=O)(O)C(F)(F)C(F)(F)C(F)(F)C(F)(F)C(F)(F)C(F)(F)F` [PFHxS, perfluorohexanesulfonic acid], the “thermal shift profile at different reaction volumes (volatility check)” value in series [1] is on record as “no differences”.
For `O=C(O)C(F)(OC(F)(F)C(F)(F)C(F)(F)F)C(F)(F)F` (stereo not shown) [HFPO-DA, hexafluoropropylene oxide dimer acid], in series [1] (PFAS), the response was half-maximal at 1830 ± 870 µM (EC50) and the thermal shift (ΔTm) turned out to be 13.7 ± 0.17 °C. In series [1] (setting [3]), this molecule registered a Kd of 1600 ± 550 µM. Also, in series [2], the “time to rapid and complete conversion of HFPO-DA to E1” value was “under 4 h”.
On to `OCCC(F)(F)C(F)(F)C(F)(F)C(F)(F)F` [4:2 FTOH, 1H,1H,2H,2H-perfluorohexane-1-ol], for which, in series [1], the “HSA binding (in words)” value is on record as “not bound by HSA; also recorded: did not bind HSA” and the “thermal shift profile at different reaction volumes (volatility check)” value was “no differences”. Also, the ΔTm in series [1] (PFAS) amounted to 0 ± 0 °C.
